According to patent publication US4591573A (priority 1983, dated 1986):
Counter-ions that a name gives are not always drawn.

Columns and labels:
[1] = tested on: antibody to L-hyoscyamine (antiserum); assay type: binding, New Zealand white rabbit
[2] = tested on: antibody of Virtanen radioimmunoassay; details: cited from earlier work
[3] = tested on: antibody of Wurzeburger radioimmunoassay; details: cited from earlier work
[4] = tested on: spinal cord; details: dog, in vivo; cited from earlier work
[5] = tested on: mice; details: mouse, in vivo; cited from earlier work
[6] = tested on: patients; details: human, in vivo; cited from earlier work
[7] = in vivo; cited from earlier work
[8] = tested on: peripheral parasympathetic nervous system; details: in vivo; cited from earlier work
[9] = tested on: children (flush); details: in vivo, po; cited from earlier work
[10] = tested on: frogs; details: in vivo; cited from earlier work
[11] = in vivo; cited from earlier work; remark: listed apart in the source
[12] = tested on: human eyes; details: in vivo; cited from earlier work

## CN1[C@@H]2CC[C@H]1C[C@@H](OC(=O)C(O)c1ccccc1)C2 (mixture of isomers) [Homatropine, dl-homatropine-HBr]
[1]
  recognition by / cross-reaction with the antibody: recognized by the antibody

## O=C(O)C(CO)c1ccccc1 (racemic) [Tropic Acid, dl-tropic acid]
[1]
  % Cross-reactivity: 0%
  recognition by / cross-reaction with the antibody: did not cross-react with the antibody

## CN1[C@@H]2CC[C@H]1C[C@@H](OC(=O)C(CO)c1ccccc1)C2 (mixture of isomers) [atropine, D,L-hyoscyamine]
[1]
  % Cross-reactivity: 30%
  Specificity (cross-reactivity), Verma: 37%
  cross reaction / cross-reactivity with antibody of the invention: about 37%
  recognition by / cross-reaction with the antibody: recognized by the antibody
[2]
  Specificity (cross-reactivity), Virtanen: 100%
[3]
  Specificity (percentage of cross reactivity), Wurzeburger: 100%
[4]
  effect on excitability of the spinal cord: increase the excitability of the spinal cord
[5]
  narcotization: became narcotized
[6]
  complications: tachycardia, lethal arrhythmias and/or extension of the myocardial infarction
[7]
  cycloplegic effect: exert a cycloplegic effect
  effect on thermoregulation: hinders thermoregulation

## CN1[C@@H]2CC[C@H]1C[C@@H](OC(=O)[C@@H](CO)c1ccccc1)C2 [D-hyoscyamine]
[1]
  cross reaction / cross-reactivity with antibody of the invention: about 37%
[8]
  peripheral activity: peripherally inactive
[9]
  quantity required for flush, as multiple: 20-40 times
[10]
  effect on spinal cord: an excitant to the spinal cord
[11]
  rate of destruction compared with L-form: destroyed more slowly than the L-form

## CN1[C@@H]2CC[C@H]1C[C@@H](OC(=O)[C@H](CO)c1ccccc1)C2 [L-hyoscyamine sulphate]
[12]
  action on human eyes: 0.25% solution, can replace a 1% solution of atropine sulphate

## CN1[C@@H]2CC[C@H]1C[C@@H](OC(=O)[C@H](CO)c1ccccc1)C2 [L-hyoscyamine]
[1]
  % Cross-reactivity: 100%
  Specificity (cross-reactivity), Verma: 100%
[2]
  Specificity (cross-reactivity), Virtanen: 100%
[3]
  Specificity (percentage of cross reactivity), Wurzeburger: 2.4%
[8]
  peripheral activity: the most potent parasympathetic antispasmodic known
[9]
  quantity needed for flush: Less quantities of L-hyoscyamine were needed than atropine
[4]
  effect on excitability of the spinal cord: no effect
[5]
  narcotization: not affected

## CN1[C@@H]2C[C@@H](OC(=O)[C@H](CO)c3ccccc3)C[C@H]1[C@@H]1O[C@@H]12 [Scopolamine, 1-scopolamine-HCl]
[1]
  % Cross-reactivity: 0%

## CN1[C@@H]2CC[C@H]1C[C@@H](O)C2 [Tropine, tropine]
[1]
  % Cross-reactivity: 0%
  recognition by / cross-reaction with the antibody: did not cross-react with the antibody

## CN1[C@@H]2CC[C@H]1C[C@@H](OC(=O)C(CO)c1ccccc1)C2 (stereo partly drawn) [atropine sulfate]
After 3 hours
  serum level of 1-hyoscyamine after 3 hours: approximately 50%
In vivo
  serum level course: steady decline curve after 40 minutes
